Reference: ChEMBL document CHEMBL2331175, “On dihydroorotate dehydrogenases and their inhibitors and uses” (J Med Chem, 2013)
One block for each molecule: values may come before it.

Tests used:
[1] = target: Voltage-gated inwardly rectifying potassium channel KCNH2 (Homo sapiens, UniProt Q12809); assay: Inhibition of human ERG channel overexpressed in Chinese hamster CHOK1 cells by whole cell voltage clamp assay; format: cell-based, CHO-K1
[2] = Half life in human; format: ADME, organism-based; details: in vivo
[3] = target: Dihydroorotate dehydrogenase (quinone), mitochondrial (Rattus norvegicus) (UniProt Q63707); assay: Competitive inhibition of rat purified recombinant DHODH in presence of cofactor ubiquinone
Dihydroorotate dehydrogenase (quinone), mitochondrial (Rattus norvegicus), sequence (Q63707 whole entry): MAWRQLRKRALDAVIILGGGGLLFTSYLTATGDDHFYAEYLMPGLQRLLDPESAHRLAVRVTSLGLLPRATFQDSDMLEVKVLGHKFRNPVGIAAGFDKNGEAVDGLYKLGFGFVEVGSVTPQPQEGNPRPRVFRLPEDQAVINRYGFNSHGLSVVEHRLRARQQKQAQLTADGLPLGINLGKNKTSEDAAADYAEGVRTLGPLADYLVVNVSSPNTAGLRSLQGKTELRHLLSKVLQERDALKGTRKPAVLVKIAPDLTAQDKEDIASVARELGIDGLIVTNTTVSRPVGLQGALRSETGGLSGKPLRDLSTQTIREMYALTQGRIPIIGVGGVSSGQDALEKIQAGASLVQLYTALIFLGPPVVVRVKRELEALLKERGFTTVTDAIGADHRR

[4] = target: Dihydroorotate dehydrogenase (quinone), mitochondrial (Rattus norvegicus, UniProt Q63707); assay: Inhibition of rat purified recombinant DHODH
Dihydroorotate dehydrogenase (quinone), mitochondrial (Rattus norvegicus, UniProt Q63707), sequence (Q63707 whole entry): as above

[5] = target: T1, Dihydroorotate dehydrogenase (Plasmodium falciparum, UniProt Q54A96); assay: Inhibition of plasmodium falciparum DHODH assessed as inhibition of [14C]bicarbonate incorporation into pyrimidine nucleotide by HPLC analysis
T1 sequence (Q54A96 whole entry): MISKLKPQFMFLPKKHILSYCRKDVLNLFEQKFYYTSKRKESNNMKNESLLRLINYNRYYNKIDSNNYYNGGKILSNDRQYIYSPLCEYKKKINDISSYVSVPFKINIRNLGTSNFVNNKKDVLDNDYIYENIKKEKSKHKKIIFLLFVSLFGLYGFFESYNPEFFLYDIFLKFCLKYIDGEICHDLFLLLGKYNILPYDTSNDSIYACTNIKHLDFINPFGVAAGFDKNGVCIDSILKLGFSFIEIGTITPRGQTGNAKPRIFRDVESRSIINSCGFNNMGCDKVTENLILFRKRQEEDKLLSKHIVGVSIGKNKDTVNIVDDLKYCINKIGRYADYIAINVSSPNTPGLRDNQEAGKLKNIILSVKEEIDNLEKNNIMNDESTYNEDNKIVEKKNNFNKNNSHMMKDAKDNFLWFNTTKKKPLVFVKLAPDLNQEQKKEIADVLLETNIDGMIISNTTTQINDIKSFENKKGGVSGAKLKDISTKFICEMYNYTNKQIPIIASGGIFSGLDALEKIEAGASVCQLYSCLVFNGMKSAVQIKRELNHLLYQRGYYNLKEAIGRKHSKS

[6] = target: T2, Dihydroorotate dehydrogenase (quinone), mitochondrial (Homo sapiens, UniProt Q02127); assay: Competitive inhibition of human purified recombinant DHODH in presence of cofactor ubiquinone
T2 sequence (Q02127 whole entry): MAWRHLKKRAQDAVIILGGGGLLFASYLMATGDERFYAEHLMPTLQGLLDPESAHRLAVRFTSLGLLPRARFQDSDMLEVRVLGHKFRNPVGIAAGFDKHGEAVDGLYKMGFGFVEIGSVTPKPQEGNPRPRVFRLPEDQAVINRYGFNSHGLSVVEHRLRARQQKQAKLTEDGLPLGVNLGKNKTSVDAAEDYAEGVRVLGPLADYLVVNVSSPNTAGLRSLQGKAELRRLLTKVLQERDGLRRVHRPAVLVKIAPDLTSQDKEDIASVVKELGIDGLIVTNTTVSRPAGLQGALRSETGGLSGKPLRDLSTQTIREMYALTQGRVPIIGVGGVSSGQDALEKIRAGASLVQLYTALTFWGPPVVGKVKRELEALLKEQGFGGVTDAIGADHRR

[7] = target: T2, Dihydroorotate dehydrogenase (quinone), mitochondrial; assay: Inhibition of human purified recombinant DHODH

Voltage-gated inwardly rectifying potassium channel KCNH2, sequence (Q12809 whole entry): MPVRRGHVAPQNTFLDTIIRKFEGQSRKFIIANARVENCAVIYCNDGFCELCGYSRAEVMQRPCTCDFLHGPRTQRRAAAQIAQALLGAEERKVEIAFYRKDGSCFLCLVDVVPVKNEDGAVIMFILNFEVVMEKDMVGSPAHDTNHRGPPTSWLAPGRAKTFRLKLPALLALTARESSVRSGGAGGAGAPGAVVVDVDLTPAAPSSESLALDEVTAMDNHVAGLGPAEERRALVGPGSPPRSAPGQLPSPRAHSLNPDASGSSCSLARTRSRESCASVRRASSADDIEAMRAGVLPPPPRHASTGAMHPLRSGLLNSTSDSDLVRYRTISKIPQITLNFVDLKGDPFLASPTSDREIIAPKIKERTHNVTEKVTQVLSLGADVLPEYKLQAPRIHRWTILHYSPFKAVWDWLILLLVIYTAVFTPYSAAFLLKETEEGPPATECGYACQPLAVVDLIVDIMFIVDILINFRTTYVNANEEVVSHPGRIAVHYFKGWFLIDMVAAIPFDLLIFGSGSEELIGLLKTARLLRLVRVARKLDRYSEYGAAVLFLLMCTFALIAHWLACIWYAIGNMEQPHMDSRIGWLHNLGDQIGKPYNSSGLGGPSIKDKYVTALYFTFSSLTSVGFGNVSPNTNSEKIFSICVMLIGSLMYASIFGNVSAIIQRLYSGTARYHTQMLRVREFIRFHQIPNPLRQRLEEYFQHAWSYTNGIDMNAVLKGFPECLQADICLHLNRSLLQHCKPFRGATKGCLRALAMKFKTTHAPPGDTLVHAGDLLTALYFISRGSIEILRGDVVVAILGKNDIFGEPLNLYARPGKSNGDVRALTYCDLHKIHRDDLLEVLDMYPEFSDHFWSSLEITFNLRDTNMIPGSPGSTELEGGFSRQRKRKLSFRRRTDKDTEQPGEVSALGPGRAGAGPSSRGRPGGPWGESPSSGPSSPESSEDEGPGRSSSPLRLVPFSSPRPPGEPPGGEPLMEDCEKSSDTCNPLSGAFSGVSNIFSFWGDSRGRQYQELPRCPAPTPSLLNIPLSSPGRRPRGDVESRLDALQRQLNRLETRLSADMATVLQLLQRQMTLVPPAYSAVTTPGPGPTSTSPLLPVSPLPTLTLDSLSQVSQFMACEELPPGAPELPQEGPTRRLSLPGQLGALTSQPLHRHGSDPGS

Compound: Cc1nc2cc(OC(F)(F)F)ccc2n1-c1ccc(C(=O)NC2CC2)s1
IC50 [1]: < 2800 nM

half-life [2]: 210 min
Compound: Cc1cc(NC(=O)/C(C#N)=C(\O)C2CC2)ccc1C(F)(F)F

Kic [3]: 60 nM
IC50 [4]: 700 nM
Ki [5]: 27 µM
Kic [6]: 2.7 µM
IC50 [7]: 14.5 µM
Compound: O=C1C(O)=C([C@H]2CC[C@H](c3ccc(Cl)cc3)CC2)C(=O)c2ccccc21 [ATOVAQUONE]

half-life [2]: > 20200 min
Compound: C/C(O)=C(\C#N)C(=O)Nc1ccc(C(F)(F)F)cc1 [TERIFLUNOMIDE]
